≈ marks a conversion by molar mass, not a printed value.
Legend:
Format in all cases: functional
[1] = system: Saccharomyces cerevisiae; assay: Antifungal activity against Saccharomyces cerevisiae after 16 hrs
[2] = system: Escherichia coli; assay: Antibacterial activity against Escherichia coli after 16 hrs
[3] = system: Bacillus subtilis; assay: Antibacterial activity against Bacillus subtilis after 16 hrs

Compound | MIC [1] | MIC [2] | MIC [3]
O=CC1=CC=C(c2ccc3c(c2)Cc2ccccc2-3)CC1c1ccccc1 (stereo not given) | > 100 µg/mL | > 100 µg/mL | > 100 µg/mL
CC(C)=CCC1CC(C=O)=CC=C1C (stereo not given) | > 100 µg/mL | > 100 µg/mL | > 100 µg/mL
CC1(c2cccs2)CC(c2ccc(-c3ccccc3)cc2)=CC=C1C=O (stereo not given) | > 100 µg/mL | > 100 µg/mL | 10 µg/mL (≈ 28.1 µM)
CC(C)=CCCC1=CC=C(C=O)C(c2ccc(N(C)C)cc2)C1 (stereo not given) | > 100 µg/mL | > 100 µg/mL | > 100 µg/mL
CC1=C(/C=C/C(C)=C/C=C/C2=CC=C(C=O)C(C)(/C=C/C=C(C)/C=C/C3=C(C)CCCC3(C)C)C2)C(C)(C)CCC1 (stereo not given) | > 100 µg/mL | > 100 µg/mL | > 100 µg/mL
CC1=C(/C=C/C2=CC=C(C=O)C(C)(/C=C/C3=C(C)CCCC3(C)C)C2)C(C)(C)CCC1 (stereo not given) | > 100 µg/mL | > 100 µg/mL | > 100 µg/mL
O=CC1=CC=C(c2ccc(Cl)s2)CC1c1ccccc1 (stereo not given) | > 100 µg/mL | > 100 µg/mL | > 100 µg/mL
O=CC1=CC=C(c2ccc3ccccc3c2)CC1c1ccc([N+](=O)[O-])cc1 (stereo not given) | > 100 µg/mL | > 100 µg/mL | > 100 µg/mL
O=CC1=CC=C(c2ccccc2)CC1c1ccc([N+](=O)[O-])cc1 (stereo not given) | > 100 µg/mL | > 100 µg/mL | > 100 µg/mL
CC1=CC=C(C=O)C(C)(c2ccc(-c3ccccc3)cc2)C1 (stereo not given) | > 100 µg/mL | > 100 µg/mL | > 100 µg/mL
CC(C)=CC[C@H]1C(C)=CC=C(C=O)[C@H]1c1ccc(N(C)C)cc1 | > 100 µg/mL | > 100 µg/mL | > 100 µg/mL
O=CC1=CC=C(c2ccccc2)CC1c1ccccc1 (stereo not given) | > 100 µg/mL | > 100 µg/mL | > 100 µg/mL
CC1=C(/C=C/C2=CC=C(C=O)C(c3ccc(N(C)C)cc3)C2)C(C)(C)CCC1 (stereo not given) | > 100 µg/mL | > 100 µg/mL | > 100 µg/mL
CC1=C(/C=C/C(C)=C/C=C/C2=CC=C(C=O)C(c3ccc(N(C)C)cc3)C2)C(C)(C)CCC1 (stereo not given) | > 100 µg/mL | > 100 µg/mL | > 100 µg/mL
CC(C)=CCCc1ccc(C=O)c(-c2ccccc2)c1 | > 100 µg/mL | > 100 µg/mL | > 100 µg/mL
CC1CC(c2ccc3ccccc3c2)=CC=C1C=O (stereo not given) | > 100 µg/mL | > 100 µg/mL | > 100 µg/mL
CC1(c2ccc(-c3ccccc3)cc2)CC(c2ccc(-c3ccccc3)cc2)=CC=C1C=O (stereo not given) | > 100 µg/mL | > 100 µg/mL | > 100 µg/mL
CC1CC(c2cccs2)=CC=C1C=O (stereo not given) | > 100 µg/mL | > 100 µg/mL | > 100 µg/mL
CC1=C(/C=C/C2=CC=C(C=O)C(c3ccc([N+](=O)[O-])cc3)C2)C(C)(C)CCC1 (stereo not given) | > 100 µg/mL | > 100 µg/mL | > 100 µg/mL
Cc1ccc(C2=CC=C(C=O)C(C)(C)C2)o1 | > 100 µg/mL | > 100 µg/mL | > 100 µg/mL
CC(C)=CC[C@H]1C(C)=CC=C(C=O)[C@H]1c1ccc([N+](=O)[O-])cc1 | > 100 µg/mL | > 100 µg/mL | 10 µg/mL (≈ 32.1 µM)
CC1=CC=C(C=O)C(C)(C)C1 | > 100 µg/mL | > 100 µg/mL | > 100 µg/mL
CC1=C(/C=C/C(C)=C/C=C/C2=CC=C(C=O)C(c3ccccc3)C2)C(C)(C)CCC1 (stereo not given) | > 100 µg/mL | > 100 µg/mL | > 100 µg/mL
CC1=C(/C=C/C2=CC=C(C=O)C(c3ccccc3)C2)C(C)(C)CCC1 (stereo not given) | > 100 µg/mL | > 100 µg/mL | > 100 µg/mL
CC1CC(c2ccc3c(c2)Cc2ccccc2-3)=CC=C1C=O (stereo not given) | > 100 µg/mL | > 100 µg/mL | > 100 µg/mL

Compound | MIC [1] | MIC [2] | MIC [3]
O=CC1=CC=C(c2ccc(-c3ccccc3)cc2)CC1 | > 100 µg/mL | > 100 µg/mL | > 100 µg/mL
CC1=CC=C(C=O)C(c2ccccc2)C1 (stereo not given) | > 100 µg/mL | > 100 µg/mL | > 100 µg/mL
CC(C)=CC[C@H]1C(C)=CC=C(C=O)[C@H]1c1ccccc1 | > 100 µg/mL | > 100 µg/mL | > 100 µg/mL
CC1=C(/C=C/C(C)=C/C=C/c2ccc(C=O)c(-c3ccccc3)c2)C(C)(C)CCC1 | > 100 µg/mL | > 100 µg/mL | > 100 µg/mL
CCCCC[C@H]1C(C)=CC=C(C=O)[C@H]1c1ccccc1 | > 100 µg/mL | > 100 µg/mL | > 100 µg/mL
CCC1(c2cccs2)C(C=O)=CC=C(c2cccs2)C1C (stereo not given) | > 100 µg/mL | > 100 µg/mL | > 100 µg/mL
CC(C)=CCCC1=CC=C(C=O)C(C)(c2ccc(C)o2)C1 (stereo not given) | > 100 µg/mL | > 100 µg/mL | > 100 µg/mL
CC1(c2cccs2)CC(c2cccs2)=CC=C1C=O (stereo not given) | > 100 µg/mL | > 100 µg/mL | > 100 µg/mL
Cc1ccc(C=O)c(-c2ccccc2)c1 | > 100 µg/mL | > 100 µg/mL | > 100 µg/mL
CC(C)=CCC/C(C)=C/C[C@H]1C(C)=CC=C(C=O)[C@H]1c1ccccc1 | > 100 µg/mL | > 100 µg/mL | > 100 µg/mL
CN(C)c1ccc(-c2cc(-c3ccc4ccccc4c3)ccc2C=O)cc1 | > 100 µg/mL | > 100 µg/mL | > 100 µg/mL
CN(C)c1ccc(C2CC(c3ccccc3)=CC=C2C=O)cc1 (stereo not given) | > 100 µg/mL | > 100 µg/mL | > 100 µg/mL
CC1CC(c2ccc(-c3ccccc3)cc2)=CC=C1C=O (stereo not given) | > 100 µg/mL | > 100 µg/mL | > 100 µg/mL
CC1C(c2cccs2)=CC=C(C=O)C1c1ccccc1 (stereo not given) | > 100 µg/mL | > 100 µg/mL | > 100 µg/mL
CC1=C(/C=C/C2=CC=C(C=O)C(C)C2)C(C)(C)CCC1 (stereo not given) | > 100 µg/mL | > 100 µg/mL | > 100 µg/mL
CCCCC[C@H]1C(C)=CC=C(C=O)[C@H]1c1ccc(N(C)C)cc1 | > 100 µg/mL | > 100 µg/mL | > 100 µg/mL
Cc1ccc(C2=CC=C(C=O)C(c3ccc(N(C)C)cc3)C2)o1 (stereo not given) | > 100 µg/mL | > 100 µg/mL | > 100 µg/mL
CC1=C(/C=C/C(C)=C/C=C/C2=CC=C(C=O)CC2)C(C)(C)CCC1 | > 100 µg/mL | > 100 µg/mL | > 100 µg/mL
CC1(c2ccc3ccccc3c2)CC(c2ccc3ccccc3c2)=CC=C1C=O (stereo not given) | > 100 µg/mL | > 100 µg/mL | > 100 µg/mL
Cc1ccc(C2=CC=C(C=O)C(c3ccccc3)C2)o1 (stereo not given) | > 100 µg/mL | > 100 µg/mL | > 100 µg/mL
CC(C)=CCCC1=CC=C(C=O)C(C)C1 (stereo not given) | > 100 µg/mL | > 100 µg/mL | > 100 µg/mL
O=CC1=CC=C(c2ccc3ccccc3c2)CC1c1ccccc1 (stereo not given) | > 100 µg/mL | > 100 µg/mL | > 100 µg/mL
Cc1ccc(C2=CC=C(C=O)C(C)(c3ccc(C)o3)C2)o1 (stereo not given) | > 100 µg/mL | > 100 µg/mL | > 100 µg/mL
O=CC1=CC=C(c2cccs2)CC1c1ccccc1 (stereo not given) | > 100 µg/mL | > 100 µg/mL | > 100 µg/mL
CCCCCCC1=CC=C(C=O)C(C)(CCCCCC)C1 (stereo not given) | > 100 µg/mL | > 100 µg/mL | > 100 µg/mL

Compound | MIC [1] | MIC [2] | MIC [3]
CC1C(c2cccs2)=CC=C(C=O)C1c1ccc(N(C)C)cc1 (stereo not given) | > 100 µg/mL | > 100 µg/mL | > 100 µg/mL
CC(C)=CC[C@@H]1C(C)=CC=C(C=O)[C@H]1c1ccc(N(C)C)cc1 | > 100 µg/mL | > 100 µg/mL | > 100 µg/mL
Cc1ccc(-c2ccc(C=O)c(-c3ccc([N+](=O)[O-])cc3)c2)o1 | > 100 µg/mL | > 100 µg/mL | > 100 µg/mL
CC(C)=CCC/C(C)=C/CCC1=CC=C(C=O)C(C)(CC/C=C(\C)CCC=C(C)C)C1 (stereo not given) | > 100 µg/mL | > 100 µg/mL | > 100 µg/mL
CC(C)=CCC/C(C)=C/C[C@H]1C(C)=CC=C(C=O)[C@H]1c1ccc([N+](=O)[O-])cc1 | > 100 µg/mL | > 100 µg/mL | > 100 µg/mL
CC(C)=CC[C@@H]1C(C)=CC=C(C=O)[C@H]1c1ccccc1 | > 100 µg/mL | > 100 µg/mL | > 100 µg/mL
CC(C)=CCCc1ccc(C=O)c(-c2ccc(N(C)C)cc2)c1 | > 100 µg/mL | > 100 µg/mL | > 100 µg/mL
CN(C)c1ccc(C2CC(c3cccs3)=CC=C2C=O)cc1 (stereo not given) | > 100 µg/mL | > 100 µg/mL | > 100 µg/mL
CC(C)=CCCC1=CC=C(C=O)C(C)(CCC=C(C)C)C1 (stereo not given) | > 100 µg/mL | > 100 µg/mL | > 100 µg/mL
CC1(c2ccc3c(c2)Cc2ccccc2-3)CC(c2ccc3c(c2)Cc2ccccc2-3)=CC=C1C=O (stereo not given) | > 100 µg/mL | > 100 µg/mL | > 100 µg/mL
CN(C)c1ccc(-c2cc(-c3ccccc3)ccc2C=O)cc1 | > 100 µg/mL | > 100 µg/mL | > 100 µg/mL
Cc1ccc(C2=CC=C(C=O)C(c3ccc([N+](=O)[O-])cc3)C2)o1 (stereo not given) | > 100 µg/mL | > 100 µg/mL | > 100 µg/mL
CC1(c2ccccc2)CC(c2ccccc2)=CC=C1C=O (stereo not given) | > 100 µg/mL | > 100 µg/mL | > 100 µg/mL
CC1=CC=C(C=O)C(c2ccc([N+](=O)[O-])cc2)C1 (stereo not given) | > 100 µg/mL | > 100 µg/mL | > 100 µg/mL
CC(C)=CCCC1=CC=C(C=O)C(c2ccccc2)C1 (stereo not given) | > 100 µg/mL | > 100 µg/mL | > 100 µg/mL
Cc1ccc(C=O)c(-c2ccc(N(C)C)cc2)c1 | > 100 µg/mL | > 100 µg/mL | 10 µg/mL (≈ 41.8 µM)
CN(C)c1ccc(-c2cc(-c3ccc4c(c3)Cc3ccccc3-4)ccc2C=O)cc1 | > 100 µg/mL | > 100 µg/mL | > 100 µg/mL
CC1C(c2cccs2)=CC=C(C=O)C1c1ccc([N+](=O)[O-])cc1 (stereo not given) | > 100 µg/mL | > 100 µg/mL | > 100 µg/mL
CC1=CC=C(C=O)C(c2ccc(N(C)C)cc2)C1 (stereo not given) | > 100 µg/mL | > 100 µg/mL | > 100 µg/mL
O=CC1=CC=C(c2ccc(-c3ccccc3)cc2)CC1c1ccccc1 (stereo not given) | > 100 µg/mL | > 100 µg/mL | > 100 µg/mL
Cc1ccc(C=O)c(-c2ccc([N+](=O)[O-])cc2)c1 | > 100 µg/mL | > 100 µg/mL | > 100 µg/mL
CN(C)c1ccc(-c2cc(-c3ccc(-c4ccccc4)cc3)ccc2C=O)cc1 | > 100 µg/mL | > 100 µg/mL | > 100 µg/mL
CN(C)c1ccc(C2CC(c3ccc4c(c3)Cc3ccccc3-4)=CC=C2C=O)cc1 (stereo not given) | > 100 µg/mL | > 100 µg/mL | > 100 µg/mL
CC(C)=CCC/C(C)=C/CCC1=CC=C(C=O)C(c2ccccc2)C1 (stereo not given) | > 100 µg/mL | > 100 µg/mL | > 100 µg/mL
O=Cc1ccc(-c2ccccc2)cc1-c1ccc([N+](=O)[O-])cc1 | > 100 µg/mL | > 100 µg/mL | > 100 µg/mL

Source: ChEMBL document CHEMBL1156621, “Synthesis and cellular effects of cycloterpenals: cyclohexadienal-based activators of neurite outgrowth” (2008)
